For the experiment, the system named is mice. Put plainly: Neuropharmacological Assay (SmartCube): automated behavioral signature of compound-treated mice compared with a database of reference drug classes. The format is in vivo. The following applies: for minimal effective dose: Mus musculus, ip, read-out: MED; for minimal effective dose / MED: minimal effective dose: dose having 45% or more total activity in SmartCube, if only one dose tested; for minimal effective dose / MED / MED (minimal effective dose): i.p., that dose is shown; for AD / AG / AN / AP / AX / CE / HL / MS / PS / SH / UK: 3.0 mg/kg i.p., 15 min before test; for MED (minimal effective dose): dose having 45% or more total activity in SmartCube, if only one dose was tested. The gist of the method:
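Mice dosed i.p. 15 min before SmartCube testing, with compound in N-methyl-2-pyrrolidone/polyethylene glycol/propylene glycol. Video-captured behaviour is compared with a reference-drug signature database to give per-class probabilities, reported at 3.0 mg/kg. MED, from doses usually 0.3–10 mg/kg, is the lowest dose giving ≥45% total activity.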

The mark [1] stands for this setting: probability that activity matches this class of agents.
The mark [2] stands for this setting: probability that activity matches this class of agents, hydrochloride, 3 mg/kg.
The mark [3] stands for this setting: SmartCube class probability, hydrochloride, 3 mg/kg.

Where a name gives a salt, the structure may show the parent alone.

For the compound `CNC1CCc2sc(C)c(F)c2C1` (stereo not drawn) [Compound 196, 3-fluoro-N, 2-dimethyl-4,5,6,7-tetrahydrobenzothiophen-5-amine hydrochloride], the minimal effective dose worked out at 3 mg/kg. Also, for the setting “SmartCube class probability”, the AD entry was “ND (^ <4%)”, the AG entry is “ND (^ <4%)”, the AN result is “ND (^ <4%)” and the AP entry was “ND (^ <4%)”. Besides, for the setting “SmartCube class probability”, the AX entry is on record as “ND (^ <4%)”, the CE entry is on record as “ND (^ <4%)”, the HL result is reported as “ND (^ <4%)” and the MS entry is on record as “ND (^ <4%)”. For the setting “SmartCube class probability”, the PS entry was “ND (^ <4%)”, the SH entry is “ND (^ <4%)” and the UK entry is “+ (≥4%)”.
As to `CNC1CCc2sc(C3CC3)cc2C1` (single isomer, unassigned) [Compound 184, 2-cyclopropyl-N-methyl-4,5,6,7-tetrahydrobenzothiophen-5-amine hydrochloride], where the note is “SmartCube class probability”, the AD result is “ND (^ <4%)”, the AG entry is given as “ND (^ <4%)”, the AN result is on record as “ND (^ <4%)” and the AP result is on record as “ND (^ <4%)”. Moreover, under “SmartCube class probability”, the AX result is recorded as “ND (^ <4%)”, the CE entry is reported as “ND (^ <4%)”, the HL result is on record as “ND (^ <4%)” and the MS result is “ND (^ <4%)”. Where the note is “SmartCube class probability”, the PS entry was “ND (^ <4%)”, the SH entry was “ND (^ <4%)” and the UK result was “++ (≥24%)”. Where the note is “hydrochloride”, this compound returned an MED of over 3 mpk.
For the compound `CNC1COc2c(C)csc2C1` (stereo not drawn) [Compound 247, N, 3-dimethyl-6,7-dihydro-5H-thieno[3,2-b]pyran-6-amine hydrochloride], the minimal effective dose turned out to be 3 mg/kg. For the same compound, for the setting “SmartCube class probability”, the AD entry is “ND (^ <4%)”, the AG entry is “ND (^ <4%)”, the AN entry is “ND (^ <4%)” and the AP result is given as “++++ (≥74%)”. Under “SmartCube class probability”, the AX entry is “ND (^ <4%)”, the CE result is “ND (^ <4%)”, the HL result was “ND (^ <4%)” and the MS entry is “ND (^ <4%)”. For the same compound, where the note is “SmartCube class probability”, the PS entry was “ND (^ <4%)”, the SH result was “ND (^ <4%)” and the UK entry is “ND (^ <4%)”.
On to `CNC1CCc2cc(F)sc2C1` (single isomer, unassigned) [Compound 81, 2-fluoro-N-methyl-4,5,6,7-tetrahydrobenzothiophen-6-amine hydrochloride], for which the “MED (minimal effective dose)” value (hydrochloride) was 1 mpk. Besides, under setting [1], the AG entry is reported as “ND (^ <4%)”, the AN result is recorded as “ND (^ <4%)”, the CE result was “ND (^ <4%)” and the HL result is given as “ND (^ <4%)”. For the same compound, under setting [1], the MS entry is “ND (^ <4%)”, the PS entry is reported as “ND (^ <4%)”, the SH result was “ND (^ <4%)” and the UK result was “ND (^ <4%)”. Also, under setting [2], the AD entry is “ND (^ <4%)”, the AP entry is on record as “++++ (≥74%)” and the AX result is “ND (^ <4%)”.
On to `CNC1CCc2c(csc2C)C1` (single isomer, unassigned) [Compound 32, N, 1-dimethyl-4,5,6,7-tetrahydro-2-benzothiophen-5-amine hydrochloride], for which the “MED (minimal effective dose)” value (hydrochloride) stood at 1.0 mpk. For the same compound, under setting [1], the AD result is given as “+++ (≥49%)”, the AG entry is recorded as “ND (^ <4%)”, the AN entry was “ND (^ <4%)” and the CE entry is on record as “ND (^ <4%)”. For the same compound, under setting [1], the HL result is given as “ND (^ <4%)”, the MS result is given as “ND (^ <4%)”, the PS result was “ND (^ <4%)” and the SH result is recorded as “ND (^ <4%)”. Further, the UK result under setting [1] is given as “ND (^ <4%)”. For the same compound, under setting [2], the AP result is “+ (≥4%)” and the AX result is on record as “++ (≥24%)”.
Take `CNC1CCc2cscc2C1.Cl` (single isomer, unassigned) [Compound 14, N-methyl-4,5,6,7-tetrahydro-2-benzothiophen-5-amine hydrochloride]: the “MED (minimal effective dose)” value is 0.3 mpk. In addition, under setting [1], the AG result is “ND (^ <4%)”, the AN entry was “ND (^ <4%)”, the AX result is given as “+ (≥4%)” and the HL entry is on record as “ND (^ <4%)”. Under setting [1], the MS result is listed as “ND (^ <4%)”, the PS entry is “ND (^ <4%)”, the SH entry is “ND (^ <4%)” and the UK result is recorded as “ND (^ <4%)”. Further, under setting [2], the AD entry is recorded as “++ (≥24%)”, the AP result is on record as “+ (≥4%)” and the CE result was “ND (^ <4%)”.
For the compound `Cc1scc2c1CCC(C)(N)C2` (stereo not drawn) [Compound 200, 1,5-dimethyl-6,7-dihydro-4H-2-benzothiophen-5-amine hydrochloride], the minimal effective dose turned out to be 3 mg/kg. For the same compound, under “SmartCube class probability”, the AD result is listed as “ND (^ <4%)”, the AG result is “ND (^ <4%)”, the AN result was “++ (≥24%)” and the AP result was “ND (^ <4%)”. Moreover, for the setting “SmartCube class probability”, the AX entry was “ND (^ <4%)”, the CE result is listed as “ND (^ <4%)”, the HL result is recorded as “+ (≥4%)” and the MS entry was “ND (^ <4%)”. Under “SmartCube class probability”, the PS entry is given as “++ (≥24%)”, the SH result is “ND (^ <4%)” and the UK result is on record as “ND (^ <4%)”.
As for `CNC1CCc2cc(C#N)sc2C1` (single isomer, unassigned) [Compound 37, 6-(methylamino)-4,5,6,7-tetrahydrobenzothiophene-2-carbonitrile hydrochloride], the “MED (minimal effective dose)” value is 3.0 mpk. Moreover, under setting [1], the AD entry is listed as “ND (^ <4%)”, the AG entry is listed as “ND (^ <4%)”, the AN entry is on record as “ND (^ <4%)” and the AX result is “ND (^ <4%)”. For the same compound, under setting [1], the CE result is given as “ND (^ <4%)”, the HL entry is on record as “ND (^ <4%)”, the MS entry was “ND (^ <4%)” and the PS result was “ND (^ <4%)”. Besides, the SH entry under setting [1] was “ND (^ <4%)”. Also, under setting [2], the AP entry is “ND (^ <4%)” and the UK result is on record as “+++ (≥49%)”.
In the case of `CNC1CCCc2ccsc2C1.Cl` (single isomer, unassigned) [Compound 25, N-methyl-5,6,7,8-tetrahydro-4H-cyclohepta[b]thiophen-7-amine hydrochloride], under “hydrochloride”, the “MED (minimal effective dose)” value was determined as 1.0 mpk. Further, under setting [1], the AD entry is “ND (^ <4%)”, the AG entry was “ND (^ <4%)”, the AN entry is recorded as “ND (^ <4%)” and the AX result is reported as “ND (^ <4%)”. Besides, under setting [1], the HL entry was “ND (^ <4%)”, the MS entry is reported as “ND (^ <4%)” and the PS entry is given as “ND (^ <4%)”. Under setting [2], the AP entry is “++++ (≥74%)”, the CE entry was “ND (^ <4%)”, the SH entry was “ND (^ <4%)” and the UK result is “ND (^ <4%)”.
For `CNC1CCc2c(sc(C)c2C)C1` (single isomer, unassigned) [Compound 43, N, 2,3-trimethyl-4,5,6,7-tetrahydrobenzothiophen-6-amine hydrochloride], the “MED (minimal effective dose)” value was 3.0 mpk. Under setting [1], the AD result was “++++ (≥74%)”, the AG entry is on record as “ND (^ <4%)”, the AN result is “ND (^ <4%)” and the AP entry is “ND (^ <4%)”. Under setting [1], the AX result is recorded as “ND (^ <4%)”, the CE entry is reported as “ND (^ <4%)”, the MS result was “ND (^ <4%)” and the PS result is reported as “ND (^ <4%)”. In addition, under setting [1], the SH entry is “ND (^ <4%)” and the UK entry is listed as “ND (^ <4%)”. The HL entry under setting [2] is given as “+ (≥4%)”.
On to `c1scc2c1CCC(NCC1CC1)C2` (single isomer, unassigned) [Compound 159, N-(cyclopropylmethyl)-4,5,6,7-tetrahydro-2-benzothiophen-5-amine hydrochloride], for which, under “SmartCube class probability”, the AD result is “ND (^ <4%)”, the AG entry is on record as “ND (^ <4%)”, the AN result is recorded as “ND (^ <4%)” and the AP entry is “ND (^ <4%)”. In addition, under “SmartCube class probability”, the CE result is listed as “ND (^ <4%)”, the HL entry is “ND (^ <4%)”, the MS entry was “ND (^ <4%)” and the PS result is listed as “ND (^ <4%)”. Also, where the note is “SmartCube class probability”, the SH entry is “ND (^ <4%)”. For the same compound, under setting [3], the AX entry is recorded as “ND (^ <4%)” and the UK entry is listed as “+ (≥4%)”. This compound also yielded an MED (hydrochloride) of over 3 mpk.
Regarding `Cl.c1scc2c1CCC(NC1CC1)C2` (single isomer, unassigned) [Compound 125, N-cyclopropyl-4,5,6,7-tetrahydro-2-benzothiophen-5-amine hydrochloride], for the setting “hydrochloride”, the “MED (minimal effective dose)” value came to 0.3 mpk. Further, under setting [1], the AG entry was “ND (^ <4%)”, the AN result is “ND (^ <4%)”, the AP result was “ND (^ <4%)” and the AX entry was “ND (^ <4%)”. Moreover, under setting [1], the CE entry is given as “ND (^ <4%)”, the HL result was “ND (^ <4%)”, the MS result is reported as “ND (^ <4%)” and the PS result is on record as “ND (^ <4%)”. The SH result under setting [1] is listed as “ND (^ <4%)”. For the same compound, under setting [2], the AD result is “+++ (≥49%)” and the UK entry was “ND (^ <4%)”.

(Values after patent US20260274814A1, “THIENYL COMPOUNDS FOR THE TREATMENT OF A CENTRAL NERVOUS SYSTEM DISEASE OR DISORDER” (Coreterra Therapeutics, Inc., priority 2023, published 2026).)
